Converted amounts (≈) assume the structure as drawn. Like-named read-outs stand apart in the source and are kept apart here. Positions of bridges follow the written chain, without caps; N, C: chain ends. Non-standard residues stand in square brackets, D forms with d. Residues, ends and D or L forms follow the SMILES beside them. Dab = NCC[C@H](N)C(=O)O
Columns and labels:
P. aeruginosa PAO1 [1] = format: cell-based, Pseudomonas aeruginosa; settings: P. aeruginosa PAO1 (wild type)
Description: (§1) Bacterial strains were either obtained from the American Type Culture Collection (ATCC), Canadian National Intensive Care Unit (CAN-ICU) surveillance study or the Canadian Ward Surveillance (CANWARD) study. Strains from both CAN-ICU and CANWARD are isolates recovered from patients diagnosed with a presumed infectious disease that were admitted in a participating medical center across Canada. Efflux-deficient strain PAO200 (lacking MexAB-OprM efflux system) and PA0750 (lacking MexAB-OprM, MexCD-OprJ, MexEF-OprN, MexJK and MexXY efflux systems, and the outer membrane protein OpmH) were kindly gifted by Dr. Ayush Kumar (University of Manitoba).
(§2) The in vitro antibacterial activity of the compounds studied were assessed by broth microdilution susceptibility testing following CLSI guidelines. Bacterial cultures were grown overnight prior to the assay. The overnight grown cultures were diluted in saline to 0.5 McFarland turbidity, followed by 1:50 dilution in Mueller-Hinton broth (MHB) for inoculation to a final concentration of approximately 5×10^5 colony forming units/mL. Testing was performed on 96-well plates where the tested compounds were 2-fold serially diluted in MHB and incubated with equal volumes of bacterial inoculum at 37° C. for 18 h. […] Wells containing MHB with or without bacterial cells were used as positive or negative control, respectively.

pig erythrocytes = settings: red cells of pig, 1 h, 512
Description: The ability of the compounds to lyse eukaryotic red blood cells was measured by the amount of hemoglobin released upon incubation with pig erythrocytes, following a published protocol [30]. Briefly, fresh pig blood (generously provided by Dr. Richard Hodges, Director of Animal Care and Veterinary Services of the University of Manitoba) drawn from a pig's antecubital vein was centrifuged at 1000 g for 5 min at 4° C., washed with phosphate-buffered saline (PBS) three times, and re-suspended in the same buffer, consecutively. Compounds at study were 2-fold serially diluted in PBS on a 96-well plate and mixed with equal volumes of erythrocyte solution. Post 1 h incubation at 37° C., the intact cells were pelleted by centrifugation at 1000 g for 5 min at 4° C. Resulting supernatant was then transferred to a new 96-well plate. The hemoglobin released was then measured via an EMax Plus microplate reader (Molecular Devices, USA) at 570 nm wavelength. Erythrocytes in PBS with or without 0.1% Triton X-100 were used as positive or negative control, respectively.

P. aeruginosa PAO1 [2] = system: P. aeruginosa PAO1; design: MICDrug / MICDrug in combo / MIC of adjuvant in combo: unit not given beside the values
Description: The potential of the dilipid polymyxins to serve as an adjuvant in combination with other antibiotics was evaluated against P. aeruginosa PAO1 strain (Tables 4 and 7-12). […] Checkerboard assays were performed with the dilipid polymyxins in combination with twenty-one clinically-used antibiotics. The panel included representatives from the β-lactam, carbapenem, tetracycline, aminoglycoside and fluoroquinolone antibiotic families. Other agents that are used to treat Gram-negative bacterial infection such as fosfomycin, trimethoprim and chloramphenicol were also included. […] Fractional inhibitory concentration (FIC) index was calculated for each combination to measure potential synergism between the two agents. FIC was obtained by dividing the MIC of antibiotic/adjuvant in combination by the MIC of antibiotic/adjuvant alone, while FIC index was calculated by the summation of FIC indices for the antibiotic and adjuvant. An FIC index of ≤0.5, 0.5<x≤4, or >4 denotes for synergistic, additive or antagonistic interaction, respectively. Initially, we assessed the adjuvant properties of PMBN against the panel of 21 antibiotics.
The assay was performed on 96-well plates as previously described. Briefly, the antibiotic at study was 2-fold serially diluted along the x-axis, while the adjuvant was 2-fold serially diluted along the y-axis to create a matrix in which each well consists of a combination of both at different concentrations. Overnight grown bacterial cultures were diluted in saline to 0.5 McFarland turbidity, followed by 1:50 dilution in MHB and inoculation on each well to a final concentration of approximately 5×10^5 colony forming units/mL. Wells containing only MHB with or without bacterial cells were used as positive or negative control, respectively. […] The fractional inhibitory concentration (FIC) of the antibiotic was calculated via dividing the MIC of antibiotic in the presence of adjuvant by the MIC of antibiotic alone. Similarly, the FIC of adjuvant was calculated via dividing the MIC of adjuvant in the presence of antibiotic by the MIC of adjuvant alone. The FIC index was obtained by the summation of both FIC values. The FIC index was then interpreted as synergistic, additive, or antagonistic for values of ≤0.5, 0.5<x<4, or ≥4, respectively.

P. aeruginosa PAO200 = system: P. aeruginosa PAO200
Description: (§3) To our curiosity, we explored whether efflux can affect the activity of polymyxins. It is widely accepted that polymyxins disrupt Gram-negative bacterial membranes that result to intracellular component leakage and bacterial cell death. However, for this to occur requires the agent to reach the periplasmic space to interact and disrupt the inner membrane. Active efflux may potentially expel polymyxins out of the periplasm, effectively reducing its periplasmic and intracellular concentrations. To study the effect of efflux on polymyxins in Gram-negative pathogens, we used P. aeruginosa as they inherently overexpress efflux systems such as MexAB-OprM, MexCD-OprJ and MexXY-OprM. Moreover, antibiotic substrates for these efflux systems are mostly characterized. We evaluated and compared the activity of the dilipid polymyxins, colistin and PMBN against wild-type PAO1 and two efflux-deficient P. aeruginosa isogenic mutants (Table 5). The strain PAO200 lacks the MexAB-OprM efflux system while strain PAO750 lacks five clinically-relevant pumps (MexAB-OprM, MexCD-OprJ, MexEF-OprN, MexJK and MexXY) and outer membrane protein OpmH.
as §1, §2

P. aeruginosa PAO750 = settings: P. aeruginosa PAO750, efflux-deficient strain that lacks five pumps and OpmH
Description: as §3, §1, §2

[3] = healthy volunteers; single dose up to 800 mg or multiple dose up to 600 mg every 8 hours for 14 consecutive days; cited from earlier work

In the case of CC(C)C[C@@H]1NC(=O)[C@@H](Cc2ccccc2)NC(=O)[C@H](CCN)NC(=O)[C@@H](NC(=O)[C@H](CCN)NC(=O)[C@@H](N)[C@@H](C)O)CCNC(=O)[C@H]([C@@H](C)O)NC(=O)[C@H](CCN)NC(=O)[C@H](CCN)NC1=O [PMBN, polymyxin B nonapeptide, reference compound] (H-T[Dab][Dab][Dab][dF]L[Dab][Dab]T; lactam 3-C (inferred)), the MIC (P. aeruginosa PAO1 [1]) is reported as 128 µg/mL (≈ 133 µM), the “% Hemolysis at 512 μg/mL of polymyxin” value (pig erythrocytes) is reported as 1.1 ± 0.1% and the “MIC of adjuvant alone (MIC1, MIC2, MIC3, MIC4, MIC5, MICPMBN)” value (P. aeruginosa PAO1 [2]; adjuvant alone, one value per checkerboard, in µg/mL) is reported as 128. For the same compound, the Interpretation (P. aeruginosa PAO1 [2]; combination with Aztreonam) was “Synergy (An FIC index of ≤0.5, 0.5<x≤4, or >4 denotes for synergistic, additive or antagonistic interaction, respectively)”, the Interpretation (P. aeruginosa PAO1 [2]; combination with Ceftazidime) was “Synergy (An FIC index of ≤0.5, 0.5<x≤4, or >4 denotes for synergistic, additive or antagonistic interaction, respectively)” and the Interpretation (P. aeruginosa PAO1 [2]; combination with Chloramphenicol) was “Synergy (An FIC index of ≤0.5, 0.5<x≤4, or >4 denotes for synergistic, additive or antagonistic interaction, respectively)”. For the same compound, the Interpretation (P. aeruginosa PAO1 [2]; combination with Ciprofloxacin) was “Synergy (An FIC index of ≤0.5, 0.5<x≤4, or >4 denotes for synergistic, additive or antagonistic interaction, respectively)”, the Interpretation (P. aeruginosa PAO1 [2]; combination with Clindamycin) was “Synergy (An FIC index of ≤0.5, 0.5<x≤4, or >4 denotes for synergistic, additive or antagonistic interaction, respectively)” and the Interpretation (P. aeruginosa PAO1 [2]; combination with Doripenem) was “Synergy (An FIC index of ≤0.5, 0.5<x≤4, or >4 denotes for synergistic, additive or antagonistic interaction, respectively)”. For the same compound, the Interpretation (P. aeruginosa PAO1 [2]; combination with Doxycycline) was “Synergy (An FIC index of ≤0.5, 0.5<x≤4, or >4 denotes for synergistic, additive or antagonistic interaction, respectively)”, the Interpretation (P. aeruginosa PAO1 [2]; combination with Fosfomycin) was “Synergy (An FIC index of ≤0.5, 0.5<x≤4, or >4 denotes for synergistic, additive or antagonistic interaction, respectively)” and the Interpretation (P. aeruginosa PAO1 [2]; combination with Gentamicin) was “Additive (An FIC index of ≤0.5, 0.5<x≤4, or >4 denotes for synergistic, additive or antagonistic interaction, respectively)”. The Interpretation (P. aeruginosa PAO1 [2]; combination with Linezolid) was “Synergy (An FIC index of ≤0.5, 0.5<x≤4, or >4 denotes for synergistic, additive or antagonistic interaction, respectively)”, the Interpretation (P. aeruginosa PAO1 [2]; combination with Meropenem) was “Synergy (An FIC index of ≤0.5, 0.5<x≤4, or >4 denotes for synergistic, additive or antagonistic interaction, respectively)” and the Interpretation (P. aeruginosa PAO1 [2]; combination with Minocycline) was “Synergy (An FIC index of ≤0.5, 0.5<x≤4, or >4 denotes for synergistic, additive or antagonistic interaction, respectively)”. The Interpretation (P. aeruginosa PAO1 [2]; combination with Moxifloxacin) was “Synergy (An FIC index of ≤0.5, 0.5<x≤4, or >4 denotes for synergistic, additive or antagonistic interaction, respectively)”, the Interpretation (P. aeruginosa PAO1 [2]; combination with Novobiocin) was “Synergy (An FIC index of ≤0.5, 0.5<x≤4, or >4 denotes for synergistic, additive or antagonistic interaction, respectively)” and the Interpretation (P. aeruginosa PAO1 [2]; combination with Piperacillin) was “Synergy (An FIC index of ≤0.5, 0.5<x≤4, or >4 denotes for synergistic, additive or antagonistic interaction, respectively)”. For the same compound, the Interpretation (P. aeruginosa PAO1 [2]; combination with Pleuromutilin) was “Synergy (An FIC index of ≤0.5, 0.5<x≤4, or >4 denotes for synergistic, additive or antagonistic interaction, respectively)”, the Interpretation (P. aeruginosa PAO1 [2]; combination with Rifampicin) was “Synergy (An FIC index of ≤0.5, 0.5<x≤4, or >4 denotes for synergistic, additive or antagonistic interaction, respectively)” and the Interpretation (P. aeruginosa PAO1 [2]; combination with Streptomycin) was “Additive (An FIC index of ≤0.5, 0.5<x≤4, or >4 denotes for synergistic, additive or antagonistic interaction, respectively)”. The Interpretation (P. aeruginosa PAO1 [2]; combination with Tobramycin) was “Additive (An FIC index of ≤0.5, 0.5<x≤4, or >4 denotes for synergistic, additive or antagonistic interaction, respectively)”, the Interpretation (P. aeruginosa PAO1 [2]; combination with Trimethoprim) was “Synergy (An FIC index of ≤0.5, 0.5<x≤4, or >4 denotes for synergistic, additive or antagonistic interaction, respectively)” and the Interpretation (P. aeruginosa PAO1 [2]; combination with Vancomycin) was “Synergy (An FIC index of ≤0.5, 0.5<x≤4, or >4 denotes for synergistic, additive or antagonistic interaction, respectively)”. The “MIC of adjuvant in combo” value (P. aeruginosa PAO1 [2]; in combination with Aztreonam) was “(4)”, the “MIC of adjuvant in combo” value (P. aeruginosa PAO1 [2]; in combination with Ceftazidime) was “(8)” and the “MIC of adjuvant in combo” value (P. aeruginosa PAO1 [2]; in combination with Chloramphenicol) was “(1)”. The “MIC of adjuvant in combo” value (P. aeruginosa PAO1 [2]; in combination with Ciprofloxacin) was “(32)”, the “MIC of adjuvant in combo” value (P. aeruginosa PAO1 [2]; in combination with Clindamycin) was “(0.5)” and the “MIC of adjuvant in combo” value (P. aeruginosa PAO1 [2]; in combination with Doripenem) was “(8)”. For the same compound, the “MIC of adjuvant in combo” value (P. aeruginosa PAO1 [2]; in combination with Doxycycline) was “(4)”, the “MIC of adjuvant in combo” value (P. aeruginosa PAO1 [2]; in combination with Fosfomycin) was “(32)” and the “MIC of adjuvant in combo” value (P. aeruginosa PAO1 [2]; in combination with Gentamicin) was “(64)”. For the same compound, the “MIC of adjuvant in combo” value (P. aeruginosa PAO1 [2]; in combination with Linezolid) was “(4)”, the “MIC of adjuvant in combo” value (P. aeruginosa PAO1 [2]; in combination with Meropenem) was “(16)” and the “MIC of adjuvant in combo” value (P. aeruginosa PAO1 [2]; in combination with Minocycline) was “(8)”. For the same compound, the “MIC of adjuvant in combo” value (P. aeruginosa PAO1 [2]; in combination with Moxifloxacin) was “(32)”, the “MIC of adjuvant in combo” value (P. aeruginosa PAO1 [2]; in combination with Novobiocin) was “(4)” and the “MIC of adjuvant in combo” value (P. aeruginosa PAO1 [2]; in combination with Piperacillin) was “(8)”. For the same compound, the “MIC of adjuvant in combo” value (P. aeruginosa PAO1 [2]; in combination with Pleuromutilin) was “(0.5)”, the “MIC of adjuvant in combo” value (P. aeruginosa PAO1 [2]; in combination with Rifampicin) was “(0.5)” and the “MIC of adjuvant in combo” value (P. aeruginosa PAO1 [2]; in combination with Streptomycin) was “(0.5)”. For the same compound, the “MIC of adjuvant in combo” value (P. aeruginosa PAO1 [2]; in combination with Tobramycin) was “(0.5)”, the “MIC of adjuvant in combo” value (P. aeruginosa PAO1 [2]; in combination with Trimethoprim) was “(4)” and the “MIC of adjuvant in combo” value (P. aeruginosa PAO1 [2]; in combination with Vancomycin) was “(1)”. The “adjuvant activity (potentiation of the panel of 21 antibiotics)” value (P. aeruginosa PAO1 [2]; result in words) was “potentiated all antibiotics tested except for those belonging to the aminoglycoside family”, the MIC (P. aeruginosa PAO200; P. aeruginosa PAO200, efflux-deficient strain that lacks the MexAB-OprM pump) was 2 µg/mL (≈ 2.08 µM) and the “fold difference in MIC against wild-type PAO1 and efflux-deficient PAO200” value (P. aeruginosa PAO200; PAO1 versus PAO200 (lacks MexAB-OprM)) was 64 fold. The MIC (P. aeruginosa PAO750) was 4 µg/mL (≈ 4.15 µM).
For CC(=O)N[C@H](C(=O)N[C@H](CO)C(=O)N[C@H]1CCNC(=O)[C@H]([C@@H](C)O)NC(=O)[C@H](CCN)NC(=O)[C@H](CCN)NC(=O)[C@H](CC(C)C)NC(=O)[C@@H](Cc2ccccc2)NC(=O)[C@H](CCN)NC1=O)[C@@H](C)O [SPR741] (Ac-T[dS][Dab][Dab][dF]L[Dab][Dab]T; lactam 3-C), the tolerability [3] is listed as “well-tolerated”.

Reference: US20210261621A1, “Preparation of Dilipid Polymixins and Use Thereof as Antimicrobial Adjuvants” (priority 2018, published 2021)
